#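 Growth conditions: 96-well plates. Treatment: test compound, 48 hours, 5 concentrations. Analysis: linear interpolation between bracketing concentrations; unreached endpoints set to highest concentration. TGI: concentration producing complete growth inhibition.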
# Assays:
# Test in all cases: inhibition of tumour cell growth, NCI panel, 48 h
# 786-0 renal = system: 786-0 renal
# A498 renal = system: A498 renal
# A549 NSCLC = system: A549 NSCLC
# ACHN renal = system: ACHN renal
# BT-549 breast = system: BT-549 breast
# CAKI-1 renal = system: CAKI-1 renal
# COLO 205 colon = system: COLO 205 colon
# DU-145 prostate = system: DU-145 prostate
# HCC-2998 colon = system: HCC-2998 colon
# HCT-116 colon = system: HCT-116 colon
# HCT-15 colon = system: HCT-15 colon
# HOP-62 NSCLC = system: HOP-62 NSCLC
# HOP-92 NSCLC = system: HOP-92 NSCLC
# HS 578T breast = system: HS 578T breast
# HT29 colon = system: HT29 colon
# IGROV1 ovarian = system: IGROV1 ovarian
# K-562 leukemia = system: K-562 leukemia
# KM12 colon = system: KM12 colon
# LOX IMVI melanoma = system: LOX IMVI melanoma
# M14 melanoma = system: M14 melanoma
# MALME-3M melanoma = system: MALME-3M melanoma
# MDA-MB-231 breast = system: MDA-MB-231 breast
# MDA-MB-435 = system: MDA-MB-435
# MDA-N = system: MDA-N
# MOLT-4 leukemia = system: MOLT-4 leukemia
# NCI-H226 lung = system: NCI-H226 lung
# NCI-H23 lung = system: NCI-H23 lung
# NCI-H460 lung = system: NCI-H460 lung
# NCI-H522 lung = system: NCI-H522 lung
# NCI/ADR-RES ovarian = system: NCI/ADR-RES ovarian
# OVCAR-3 ovarian = system: OVCAR-3 ovarian
# OVCAR-4 ovarian = system: OVCAR-4 ovarian
# OVCAR-5 ovarian = system: OVCAR-5 ovarian
# OVCAR-8 ovarian = system: OVCAR-8 ovarian
# PC-3 prostate = system: PC-3 prostate
# RPMI-8226 leukemia = system: RPMI-8226 leukemia
# RXF 393 renal = system: RXF 393 renal
# SF-268 CNS = system: SF-268 CNS
# SF-295 CNS = system: SF-295 CNS
# SK-MEL-2 melanoma = system: SK-MEL-2 melanoma
# SK-MEL-28 melanoma = system: SK-MEL-28 melanoma
# SK-MEL-5 melanoma = system: SK-MEL-5 melanoma
# SK-OV-3 ovarian = system: SK-OV-3 ovarian
# SN12C renal = system: SN12C renal
# SNB-19 CNS = system: SNB-19 CNS
# SNB-75 CNS = system: SNB-75 CNS
# SR leukemia = system: SR leukemia
# SW-620 colon = system: SW-620 colon
# T-47D breast = system: T-47D breast
# TK-10 renal = system: TK-10 renal
# U251 CNS = system: U251 CNS
# UACC-257 melanoma = system: UACC-257 melanoma
# UACC-62 melanoma = system: UACC-62 melanoma
# UO-31 renal = system: UO-31 renal
# CCRF-CEM leukemia = system: CCRF-CEM leukemia
# EKVX NSCLC = system: EKVX NSCLC
# HL-60(TB) leukemia = system: HL-60(TB) leukemia
# MCF7 breast = system: MCF7 breast
# SF-539 CNS = system: SF-539 CNS
structure (smiles),measurement,setting,value
CCOC(=O)c1sc2nc(SC)nc(N3CCCCC3)c2c1N,TGI,786-0 renal,> 100 µM
same,TGI,A498 renal,> 100 µM
same,TGI,A549 NSCLC,> 100 µM
same,TGI,ACHN renal,> 100 µM
same,TGI,BT-549 breast,> 100 µM
same,TGI,CAKI-1 renal,> 100 µM
same,TGI,COLO 205 colon,> 100 µM
same,TGI,DU-145 prostate,> 100 µM
same,TGI,HCC-2998 colon,> 100 µM
same,TGI,HCT-116 colon,> 100 µM
same,TGI,HCT-15 colon,> 100 µM
same,TGI,HOP-62 NSCLC,> 100 µM
same,TGI,HOP-92 NSCLC,> 100 µM
same,TGI,HS 578T breast,> 100 µM
same,TGI,HT29 colon,> 100 µM
same,TGI,IGROV1 ovarian,> 100 µM
same,TGI,K-562 leukemia,> 100 µM
same,TGI,KM12 colon,> 100 µM
same,TGI,LOX IMVI melanoma,> 100 µM
same,TGI,M14 melanoma,> 100 µM
same,TGI,MALME-3M melanoma,> 100 µM
same,TGI,MDA-MB-231 breast,> 100 µM
same,TGI,MDA-MB-435,> 100 µM
same,TGI,MDA-N,> 100 µM
same,TGI,MOLT-4 leukemia,> 100 µM
same,TGI,NCI-H226 lung,> 100 µM
same,TGI,NCI-H23 lung,> 100 µM
same,TGI,NCI-H460 lung,> 100 µM
same,TGI,NCI-H522 lung,> 100 µM
same,TGI,NCI/ADR-RES ovarian,> 100 µM
same,TGI,OVCAR-3 ovarian,> 100 µM
same,TGI,OVCAR-4 ovarian,> 100 µM
same,TGI,OVCAR-5 ovarian,> 100 µM
same,TGI,OVCAR-8 ovarian,> 100 µM
same,TGI,PC-3 prostate,> 100 µM
same,TGI,RPMI-8226 leukemia,> 100 µM
same,TGI,RXF 393 renal,> 100 µM
same,TGI,SF-268 CNS,> 100 µM
same,TGI,SF-295 CNS,> 100 µM
same,TGI,SK-MEL-2 melanoma,> 100 µM
same,TGI,SK-MEL-28 melanoma,> 100 µM
same,TGI,SK-MEL-5 melanoma,> 100 µM
same,TGI,SK-OV-3 ovarian,> 100 µM
same,TGI,SN12C renal,> 100 µM
same,TGI,SNB-19 CNS,> 100 µM
same,TGI,SNB-75 CNS,> 100 µM
same,TGI,SR leukemia,> 100 µM
same,TGI,SW-620 colon,> 100 µM
same,TGI,T-47D breast,> 100 µM
same,TGI,TK-10 renal,> 100 µM
same,TGI,U251 CNS,> 100 µM
same,TGI,UACC-257 melanoma,> 100 µM
same,TGI,UACC-62 melanoma,> 100 µM
same,TGI,UO-31 renal,> 100 µM
O=C1Cc2c([nH]c3ccc([N+](=O)[O-])cc23)-c2ccccc2N1,TGI,786-0 renal,> 100 µM
same,TGI,A498 renal,> 19.7 µM
same,TGI,A549 NSCLC,> 56.8 µM
same,TGI,ACHN renal,> 18.2 µM
same,TGI,BT-549 breast,> 100 µM
same,TGI,CAKI-1 renal,> 95.7 µM
same,TGI,CCRF-CEM leukemia,0.325 µM
same,TGI,COLO 205 colon,1.16 µM
same,TGI,EKVX NSCLC,2.38 µM
same,TGI,HCC-2998 colon,> 49.1 µM
same,TGI,HCT-116 colon,1.96 µM
same,TGI,HCT-15 colon,> 100 µM
same,TGI,HL-60(TB) leukemia,0.752 µM
same,TGI,HOP-62 NSCLC,18.8 µM
same,TGI,HOP-92 NSCLC,> 100 µM
same,TGI,HS 578T breast,> 21.2 µM
same,TGI,HT29 colon,4.46 µM
same,TGI,IGROV1 ovarian,> 100 µM
same,TGI,K-562 leukemia,9.23 µM
same,TGI,KM12 colon,> 55.1 µM
same,TGI,LOX IMVI melanoma,> 100 µM
same,TGI,M14 melanoma,> 30 µM
same,TGI,MALME-3M melanoma,> 100 µM
same,TGI,MCF7 breast,> 100 µM
same,TGI,MDA-MB-231 breast,> 100 µM
same,TGI,MDA-MB-435,> 100 µM
same,TGI,MDA-N,8.44 µM
same,TGI,MOLT-4 leukemia,1.44 µM
same,TGI,NCI-H226 lung,18.2 µM
same,TGI,NCI-H23 lung,6.37 µM
same,TGI,NCI-H460 lung,> 63 µM
same,TGI,NCI-H522 lung,> 26.2 µM
same,TGI,NCI/ADR-RES ovarian,> 84 µM
same,TGI,OVCAR-4 ovarian,6.11 µM
same,TGI,OVCAR-5 ovarian,0.77 µM
same,TGI,OVCAR-8 ovarian,> 100 µM
same,TGI,PC-3 prostate,> 100 µM
same,TGI,RPMI-8226 leukemia,2.98 µM
same,TGI,RXF 393 renal,14.6 µM
same,TGI,SF-268 CNS,> 94.6 µM
same,TGI,SF-295 CNS,> 100 µM
same,TGI,SF-539 CNS,16.8 µM
same,TGI,SK-MEL-2 melanoma,5.62 µM
same,TGI,SK-MEL-5 melanoma,2.02 µM
same,TGI,SK-OV-3 ovarian,> 100 µM
same,TGI,SN12C renal,19.1 µM
same,TGI,SNB-19 CNS,> 32.7 µM
same,TGI,SW-620 colon,> 58.5 µM
same,TGI,T-47D breast,> 100 µM
same,TGI,TK-10 renal,> 37.9 µM
same,TGI,U251 CNS,> 83.1 µM
same,TGI,UACC-257 melanoma,> 62.8 µM
COP1(=O)OCc2cnccc2O1 (centres undefined),TGI,786-0 renal,> 100 µM
same,TGI,A549 NSCLC,> 100 µM
same,TGI,ACHN renal,> 100 µM
same,TGI,BT-549 breast,> 100 µM
same,TGI,CAKI-1 renal,> 100 µM
same,TGI,COLO 205 colon,> 100 µM
same,TGI,EKVX NSCLC,> 100 µM
same,TGI,HCC-2998 colon,> 100 µM
same,TGI,HCT-116 colon,> 100 µM
same,TGI,HCT-15 colon,> 100 µM
same,TGI,HOP-62 NSCLC,> 100 µM
same,TGI,HS 578T breast,> 100 µM
same,TGI,HT29 colon,> 100 µM
same,TGI,IGROV1 ovarian,> 100 µM
same,TGI,K-562 leukemia,> 100 µM
same,TGI,KM12 colon,> 100 µM
same,TGI,LOX IMVI melanoma,> 100 µM
same,TGI,M14 melanoma,> 100 µM
same,TGI,MALME-3M melanoma,> 100 µM
same,TGI,MCF7 breast,> 100 µM
same,TGI,MDA-MB-231 breast,> 100 µM
same,TGI,MDA-MB-435,> 100 µM
same,TGI,MDA-N,> 100 µM
same,TGI,MOLT-4 leukemia,> 100 µM
same,TGI,NCI-H226 lung,> 100 µM
same,TGI,NCI-H23 lung,> 100 µM
same,TGI,NCI-H460 lung,> 100 µM
same,TGI,NCI-H522 lung,> 100 µM
same,TGI,NCI/ADR-RES ovarian,> 100 µM
same,TGI,OVCAR-3 ovarian,> 100 µM
same,TGI,OVCAR-4 ovarian,> 100 µM
same,TGI,OVCAR-5 ovarian,> 100 µM
same,TGI,OVCAR-8 ovarian,> 100 µM
same,TGI,PC-3 prostate,> 100 µM
same,TGI,RPMI-8226 leukemia,> 100 µM
same,TGI,SF-268 CNS,> 100 µM
same,TGI,SF-295 CNS,> 100 µM
same,TGI,SF-539 CNS,> 100 µM
same,TGI,SK-MEL-2 melanoma,> 100 µM
same,TGI,SK-MEL-28 melanoma,> 100 µM
same,TGI,SK-MEL-5 melanoma,> 100 µM
same,TGI,SK-OV-3 ovarian,> 100 µM
same,TGI,SN12C renal,> 100 µM
same,TGI,SNB-19 CNS,> 100 µM
same,TGI,SNB-75 CNS,> 100 µM
same,TGI,SR leukemia,> 100 µM
same,TGI,SW-620 colon,> 100 µM
same,TGI,T-47D breast,> 100 µM
same,TGI,TK-10 renal,> 100 µM
same,TGI,U251 CNS,> 100 µM
same,TGI,UACC-257 melanoma,> 100 µM
same,TGI,UACC-62 melanoma,> 100 µM
same,TGI,UO-31 renal,> 100 µM

# Source: PubChem BioAssay (NCI)
